These results are taken from patent US20250304582A1, “Bicyclic Ureas As Kinase Inhibitors” (Incyte Corporation, priority 2024, published 2025).

In test [1] the target is T1, catalytic domain (JH1, amino acids 826-1132) of human JAK2 (Homo sapiens, UniProt O60674).
T1 construct: catalytic domain (JH1, amino acids 826-1132) of human JAK2; FLAG (N); purchased Carna Biosciences 08-445-20N; host or cells: baculovirus expression system
Nature of the test: JAK2 LanthaScreen JH1 Binding Assay. The settings on record: 50 nM fluorescent JAK2-JH1 tracer, 2 hours at 25° C.; read-out: JH1 BIND (EX. A). On the procedure:
Example A. JAK2 LanthaScreen JH1 Binding Assay
JAK2 JH1 binding assay utilizes catalytic domain (JH1, amino acids 826-1132) of human JAK2 expressed as N-terminal FLAG-tagged, biotinylated protein in a baculovirus expression system (Carna Biosciences, Product #08-445-20N). The assay was conducted in black 384-well polystyrene plates in a final reaction volume of 20 μL. JAK2 JH1 (1.5 nM) was incubated with compounds (100 nL serially diluted in DMSO) in the presence of 50 nM fluorescent JAK2-JH1 tracer and 0.5 nM Streptavidin-Tb cryptate (Cisbio Part #610SATLB) in assay buffer (50 mM Tris, pH=7.5, 10 mM MgCl2, 0.01% Brij-35, 0.1% BSA, 1 mM EGTA, 5% Glycerol and 5 mM DTT). Non-specific binding was accessed in the presence of 2 mM ATP. After incubation for 2 hours at 25° C., LanthaScreen signals were read on a PHERAstar FS plate reader (BMG LABTECH). Data was analyzed with IDBS Xlfit and GraphPad Prism 5.0 software using a four parameter dose response curve to determine IC50 for each compound.
For orientation: TR-FRET usually uses a lanthanide donor and a delayed reading to cut background.

For test [2], the target named is T2, pseudo-kinase domain (JH2, amino-acids 536-812) of human Wild Type JAK2 (Homo sapiens, UniProt O60674, F794H/W659A/W777A).
T2 construct: JH2, amino-acids 536-812 with 3 surface mutations W659A, W777A, F794H; His (C); purchased BPS Bioscience 79463; host or cells: baculovirus expression system
The experiment in a line: JAK2 LanthaScreen JH2-WT Binding Assay. As to conditions: 50 nM Fluorescent JAK2-JH2 Tracer, 1 hour at 25° C.; read-out: JH2 BIND WT (EX. B). On the procedure: Example B. JAK2 LanthaScreen JH2-WT Binding Assay
(§1) JAK2 JH2-WT binding assay utilizes pseudo-kinase domain (JH2, amino-acids 536-812 with 3 surface mutations W659A, W777A, F794H) of human Wild Type JAK2 expressed as C-terminal His-Avi-tagged, biotinylated protein in a baculovirus expression system (BPS Bioscience, Catalog #79463). The assay was conducted in black 384-well polystyrene plates in a final reaction volume of 20 μL. JAK2 JH2-WT (0.145 nM) was incubated with compounds (100 nL serially diluted in DMSO) in the presence of 50 nM Fluorescent JAK2-JH2 Tracer (MedChem Express Catalog #HY-102055) and 0.25 nM Streptavidin-Tb cryptate (Cisbio Part #610SATLB) in assay buffer (50 mM Tris, pH=7.5, 10 mM MgCl2, 0.01% Brij-35, 0.1% BSA, 1 mM EGTA, 5% Glycerol and 5 mM DTT). Non-specific binding was accessed in the presence of 2 mM ATP. After incubation for 1 hour at 25° C., LanthaScreen signals were read on a PHERAstar FS plate reader (BMG LABTECH). Data was analyzed with IDBS Xlfit and GraphPad Prism 5.0 software using a four parameter dose response curve to determine IC50 for each compound.

In test [3] the target is T3, pseudo-kinase domain (JH2, amino-acids 536-812) of human V617F mutant JAK2 (Homo sapiens, UniProt O60674, F794H/V617F/W659A/W777A).
T3 construct: JH2, amino-acids 536-812 with 3 surface mutations W659A, W777A, F794H; His (C); purchased BPS Bioscience 79498; host or cells: baculovirus expression system
Nature of the test: JAK2 LanthaScreen JH2-V617F Binding Assay. The settings on record: 50 nM Fluorescent JAK2-JH2 Tracer, 1 hour at 25° C.; read-out: JH2 BIND V617F (Ex. C). On the procedure:
Example C. JAK2 LanthaScreen JH2-V617F Binding Assay
as §1, with “JH2-V617F” for “JH2-WT”, “V617F mutant” for “Wild Type”, “#79498).” for “#79463).”, “JH2-V617F (0.26” for “JH2-WT (0.145”

Test [4] has as its target T4, catalytic domain (JH1, amino acids 808-1132) of human JAK2 (Homo sapiens, UniProt O60674).
T4 construct: catalytic domain (JH1, amino acids 808-1132) of human JAK2; His (N); purchased BPS Bioscience 40450; host or cells: baculovirus expression system
Nature of the test: JAK2 HTRF Enzyme Activity Assay. Type of test: biochemical. The settings on record: ATP (30 μM or 1 mM; not stated which for the table), 60 minutes at 25° C.; read-out: JAK2 HTRF (Ex. D). As for the experimental part: Example D. JAK2 HTRF Enzyme Activity Assay
JAK2 enzyme activity assays utilize catalytic domain (JH1, amino acids 808-1132) of human JAK2 expressed as N-terminal His-tagged protein in a baculovirus expression system (BPS Bioscience, Catalog #40450). The assays was conducted in black 384-well polystyrene plates in a final reaction volume of 20 μL. JAK2 (0.015 nM) was incubated with compounds (100 nL serially diluted in DMSO) in the presence of ATP (30 μM or 1 mM) and 500 nM Biotin-labeled EQEDEPEGDYFEWLE (SEQ ID NO.: 1) peptide (BioSource International, custom synthesis) in assay buffer (50 mM Tris, pH=7.5, 10 mM MgCl2, 0.01% Brij-35, 0.1% BSA, 1 mM EGTA, 5% Glycerol and 5 mM DTT) for 60 minutes at 25° C. The reactions were stopped by the addition of 10 μL of detection buffer (50 mM Tris, pH 7.8, 0.5 mg/mL BSA, 150 mM NaCl), supplemented with EDTA, LANCE Eu-W1024 anti-phosphotyrosine (PY20), (PerkinElmer, Catalog #AD0067) and Streptavidin SureLight APC (PerkinElmer Catalog #CR130-100), for a final concentration of 15 mM, 1.5 nM and 75 nM, respectively. HTRF signals were read after 30 minutes incubation at room temperature on a PHERAstar FS plate reader (BMG LABTECH). Data was analyzed with TDBS Xlfit and GraphPad Prism 5.0 software using a four parameter dose response curve to determine IC50 for each compound.

T2 sequence (O60674 536-812 W659A/W777A/F794H): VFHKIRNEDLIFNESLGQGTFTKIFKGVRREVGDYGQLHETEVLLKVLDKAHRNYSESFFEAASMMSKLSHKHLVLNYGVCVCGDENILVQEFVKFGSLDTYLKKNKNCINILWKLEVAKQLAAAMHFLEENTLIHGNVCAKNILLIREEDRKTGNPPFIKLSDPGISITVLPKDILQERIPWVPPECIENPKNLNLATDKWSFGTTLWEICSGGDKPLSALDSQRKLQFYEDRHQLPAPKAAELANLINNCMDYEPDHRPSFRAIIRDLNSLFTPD
T3 sequence (O60674 536-812 V617F/W659A/W777A/F794H): as the sequence (O60674 536-812 W659A/W777A/F794H) above, with V82F counted along it
T4 sequence (O60674 808-1132): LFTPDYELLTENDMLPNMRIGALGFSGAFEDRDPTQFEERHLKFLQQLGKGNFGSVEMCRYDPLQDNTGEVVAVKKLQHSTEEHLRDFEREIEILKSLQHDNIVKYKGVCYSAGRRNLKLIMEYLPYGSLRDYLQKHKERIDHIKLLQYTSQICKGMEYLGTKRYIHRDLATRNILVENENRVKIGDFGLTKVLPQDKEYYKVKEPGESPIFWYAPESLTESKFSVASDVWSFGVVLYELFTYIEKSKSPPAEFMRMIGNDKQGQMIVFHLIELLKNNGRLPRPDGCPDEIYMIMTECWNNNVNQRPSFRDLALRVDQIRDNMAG
T1 sequence (O60674 826-1132): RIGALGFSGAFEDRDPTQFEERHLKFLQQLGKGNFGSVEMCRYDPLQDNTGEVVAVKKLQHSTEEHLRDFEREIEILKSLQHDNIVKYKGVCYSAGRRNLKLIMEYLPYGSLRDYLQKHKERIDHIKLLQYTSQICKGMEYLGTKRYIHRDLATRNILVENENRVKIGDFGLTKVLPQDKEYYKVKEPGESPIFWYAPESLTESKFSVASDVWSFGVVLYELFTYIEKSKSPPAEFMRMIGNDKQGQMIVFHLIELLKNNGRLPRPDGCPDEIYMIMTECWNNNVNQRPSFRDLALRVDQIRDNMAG

As for `[2H]C([2H])([2H])n1c(=O)n([C@@H]2CC[C@@H](NC(=O)OC)C2)c2cc(Nc3ccc4ncc(C(C)C(F)(F)F)n4n3)ncc21` (stereo partly drawn) [Example 30, Methyl ((1R,3R)-3-(3-(methyl-d3)-2-oxo-6-((3-(1,1,1-trifluoropropan-2-yl)imidazo[1,2-b]pyridazin-6-yl)amino)-2,3-dihydro-1H-imidazo[4,5-c]pyridin-1-yl)cyclopentyl)carbamate], the IC50 is over 1000 nM in test [1], at most 10 nM in test [2], at most 10 nM in test [3] and over 1000 nM in test [4].
Regarding `COC(=O)N[C@@H]1CC[C@@H](n2c(=O)n(C)c3cnc(Nc4ccc5cccc(C#N)c5n4)cc32)C1` [Example 43, Methyl ((1R,3R)-3-(6-((8-cyanoquinolin-2-yl)amino)-3-methyl-2-oxo-2,3-dihydro-1H-imidazo[4,5-c]pyridin-1-yl)cyclopentyl)carbamate], the IC50 was over 1000 nM in test [1], at most 10 nM in test [2], at most 10 nM in test [3] and over 1000 nM in test [4].
As for `[2H]C([2H])([2H])n1c(=O)n([C@@H]2CC[C@@H](NC(=O)OC)C2)c2cc(Nc3cc(CC#N)c4cccc(C(F)(F)F)c4n3)ncc21` [Example 18, Methyl ((1R,3R)-3-(6-((4-(cyanomethyl)-8-(trifluoromethyl)quinolin-2-yl)amino)-3-(methyl-d3)-2-oxo-2,3-dihydro-1H-imidazo[4,5-c]pyridin-1-yl)cyclopentyl)carbamate], the IC50 was 500 to 1000 nM in test [1], at most 10 nM in test [2], at most 10 nM in test [3] and 500 to 1000 nM in test [4].
With `[2H]C([2H])([2H])n1c(=O)n([C@@H]2CC[C@@H](NC(=O)OC)C2)c2cc(Nc3ccc4cc(C#N)cc(C(F)(F)F)c4n3)ncc21` [Example 26, Methyl ((1R,3R)-3-(6-((6-cyano-8-(trifluoromethyl)quinolin-2-yl)amino)-3-(methyl-d3)-2-oxo-2,3-dihydro-1H-imidazo[4,5-c]pyridin-1-yl)cyclopentyl)carbamate], the IC50 was over 1000 nM in test [1], at most 10 nM in test [2], at most 10 nM in test [3] and over 1000 nM in test [4].
Turning to `COC(=O)N[C@@H]1CC[C@@H](n2c(=O)n(C)c3cnc(Nc4ccc5cccc(C)c5n4)cc32)C1` [Example 39, Methyl ((1R,3R)-3-(3-methyl-6-((8-methylquinolin-2-yl)amino)-2-oxo-2,3-dihydro-1H-imidazo[4,5-c]pyridin-1-yl)cyclopentyl)carbamate], the IC50 in test [1] is over 1000 nM; in test [2] it was at most 10 nM; in test [3], 10 to 100 nM; in test [4], over 1000 nM.
On to `[2H]C([2H])([2H])n1c(=O)n([C@@H]2CC[C@@H](NC(=O)OC)C2)c2cc(Nc3ccc4cncc(C)c4n3)ncc21` [Example 28, Methyl ((1R,3R)-3-(3-(methyl-d3)-6-((8-methyl-1,6-naphthyridin-2-yl)amino)-2-oxo-2,3-dihydro-1H-imidazo[4,5-c]pyridin-1-yl)cyclopentyl)carbamate], for which the IC50 in test [1] is over 1000 nM; in test [2], at most 10 nM; in test [3], at most 10 nM; in test [4], over 1000 nM.
`[2H]C([2H])([2H])n1c(=O)n([C@@H]2CC[C@@H](NC(=O)OC)C2)c2cc(Nc3cc(S(C)(=O)=O)c4cccc(C(F)(F)F)c4n3)ncc21` [Example 6, Methyl ((1R,3R)-3-(3-(methyl-d3)-6-((4-(methylsulfonyl)-8-(trifluoromethyl)quinolin-2-yl)amino)-2-oxo-2,3-dihydro-1H-imidazo[4,5-c]pyridin-1-yl)cyclopentyl)carbamate]: the IC50 in test [1] was over 1000 nM; in test [2] it was at most 10 nM; in test [3] it was at most 10 nM; in test [4] it was over 1000 nM.
For the compound `[2H]C([2H])([2H])n1c(=O)n([C@H]2C[C@H](NC(=O)OC3CC3)C2)c2cc(Nc3cc(C(C)(C)O)c4cccc(C(F)(F)F)c4n3)ncc21` [Example 16, Cyclopropyl ((trans)-3-(6-((4-(2-hydroxypropan-2-yl)-8-(trifluoromethyl)quinolin-2-yl)amino)-3-(methyl-d3)-2-oxo-2,3-dihydro-1H-imidazo[4,5-c]pyridin-1-yl)cyclobutyl)carbamate], the IC50 is 100 to 500 nM in test [1], at most 10 nM in test [2], at most 10 nM in test [3] and 100 to 500 nM in test [4].
Take `[2H]C([2H])([2H])n1c(=O)n([C@@H]2CC[C@@H](NC(=O)OC)C2)c2cc(Nc3cnc4cccc(C#N)c4n3)ncc21` [Example 37, Methyl ((1R,3R)-3-(6-((8-cyanoquinoxalin-2-yl)amino)-3-(methyl-d3)-2-oxo-2,3-dihydro-1H-imidazo[4,5-c]pyridin-1-yl)cyclopentyl)carbamate]: the IC50 in test [1] was 100 to 500 nM; in test [2], at most 10 nM; in test [3], 10 to 100 nM; in test [4] it was 100 to 500 nM.
